# Experimental data published in ChEMBL document CHEMBL3885881, “DrugMatrix”.
# Species: Rattus norvegicus
# Test: DrugMatrix - Regimen: Daily Repeat
# Format: toxicity, organism-based, Sprague-Dawley
# Set-up: regimen Daily Repeat, gender Male, age 6-8 weeks
# Conditions: in vivo, po, route oral GAVAGE, vehicle 100 % WATER; for ABSOLUTE BASOPHIL / ABSOLUTE EOSINOPHIL / ABSOLUTE LYMPHOCYTE / ABSOLUTE MONOCYTE / ABSOLUTE SEGMENTED NEUTROPHIL / BASOPHIL / EOSINOPHIL / ERYTHROCYTE COUNT / HEMATOCRIT / HEMOGLOBIN / LEUKOCYTE COUNT / LYMPHOCYTE / MEAN CORPUSCULAR HEMOGLOBIN / MEAN CORPUSCULAR HEMOGLOBIN CONCENTRATION / MEAN CORPUSCULAR VOLUME / MONOCYTE / NEUTROPHIL / NUCLEATED RED BLOOD CELLS / PLATELET COUNT: tissue Blood; for ALANINE AMINOTRANSFERASE / ALBUMIN / ALKALINE PHOSPHATASE / ASPARTATE AMINOTRANSFERASE / BLOOD UREA NITROGEN / CARBON DIOXIDE / CHLORIDE / CHOLESTEROL / CREATINE PHOSPHOKINASE / CREATININE / GLUCOSE / LACTATE DEHYDROGENASE / LIPASE / PHOSPHORUS / POTASSIUM / SODIUM / TOTAL BILIRUBIN / TOTAL PROTEIN / URIC ACID: tissue Plasma
# [1] = 14 mg/kg, 72 h, dose level Low, time 3 day
# [2] = 14 mg/kg, 120 h, dose level Low, time 5 day
# [3] = 1500 mg/kg, 72 h, dose level High, time 3 day
# [4] = 1500 mg/kg, 120 h, dose level High, time 5 day
smiles,measurement,setting,value
CN(C)[C@@H]1C(O)=C(C(N)=O)C(=O)[C@@]2(O)C(O)=C3C(=O)c4c(O)cccc4[C@@](C)(O)[C@H]3[C@H](O)[C@@H]12 [OXYTETRACYCLINE],ABSOLUTE BASOPHIL,[1],0 CELLS/uL
same,ABSOLUTE EOSINOPHIL,[1],0 CELLS/uL
same,ABSOLUTE LYMPHOCYTE,[1],14072 CELLS/uL
same,ABSOLUTE MONOCYTE,[1],56.33 CELLS/uL
same,ABSOLUTE SEGMENTED NEUTROPHIL,[1],1938.33 CELLS/uL
same,BASOPHIL,[1],0%
same,EOSINOPHIL,[1],0%
same,ERYTHROCYTE COUNT,[1],5.7 x10E6/uL
same,HEMATOCRIT,[1],36.73%
same,HEMOGLOBIN,[1],14.4 G/DL
same,LEUKOCYTE COUNT,[1],16.07 x10E3/uL
same,LYMPHOCYTE,[1],87.67%
same,MEAN CORPUSCULAR HEMOGLOBIN,[1],25.27 pg
same,MEAN CORPUSCULAR HEMOGLOBIN CONCENTRATION,[1],39.27 G/DL
same,MEAN CORPUSCULAR VOLUME,[1],64.4 fL
same,MONOCYTE,[1],0.33%
same,NEUTROPHIL,[1],12%
same,NUCLEATED RED BLOOD CELLS,[1],0.33 /100WBC
same,PLATELET COUNT,[1],1430 x10E3/uL
same,ALANINE AMINOTRANSFERASE,[1],53.67 u/L
same,ALBUMIN,[1],4.57 G/DL
same,ALKALINE PHOSPHATASE,[1],372 u/L
same,ASPARTATE AMINOTRANSFERASE,[1],89.33 u/L
same,BLOOD UREA NITROGEN,[1],16.33 mg/dL
same,CARBON DIOXIDE,[1],26.67 mmol/L
same,CHLORIDE,[1],103.67 MEQ/L
same,CHOLESTEROL,[1],85.33 mg/dL
same,CREATINE PHOSPHOKINASE,[1],211.67 u/L
same,CREATININE,[1],0.27 mg/dL
same,GLUCOSE,[1],165 mg/dL
same,LACTATE DEHYDROGENASE,[1],160 u/L
same,LIPASE,[1],10 u/L
same,PHOSPHORUS,[1],13.07 mg/dL
same,POTASSIUM,[1],7.37 MEQ/L
same,SODIUM,[1],146.77 MEQ/L
same,TOTAL BILIRUBIN,[1],0.23 mg/dL
same,TOTAL PROTEIN,[1],6.17 G/DL
same,URIC ACID,[1],1.9 mg/dL
same,ABSOLUTE BASOPHIL,[2],0 CELLS/uL
same,ABSOLUTE EOSINOPHIL,[2],0 CELLS/uL
same,ABSOLUTE LYMPHOCYTE,[2],12168.33 CELLS/uL
same,ABSOLUTE MONOCYTE,[2],40 CELLS/uL
same,ABSOLUTE SEGMENTED NEUTROPHIL,[2],991.67 CELLS/uL
same,BASOPHIL,[2],0%
same,EOSINOPHIL,[2],0%
same,ERYTHROCYTE COUNT,[2],5.46 x10E6/uL
same,HEMATOCRIT,[2],35.43%
same,HEMOGLOBIN,[2],14.23 G/DL
same,LEUKOCYTE COUNT,[2],13.2 x10E3/uL
same,LYMPHOCYTE,[2],92%
same,MEAN CORPUSCULAR HEMOGLOBIN,[2],26.03 pg
same,MEAN CORPUSCULAR HEMOGLOBIN CONCENTRATION,[2],40.13 G/DL
same,MEAN CORPUSCULAR VOLUME,[2],64.83 fL
same,MONOCYTE,[2],0.33%
same,NEUTROPHIL,[2],7.67%
same,NUCLEATED RED BLOOD CELLS,[2],0 /100WBC
same,PLATELET COUNT,[2],1202.33 x10E3/uL
same,ALANINE AMINOTRANSFERASE,[2],48.67 u/L
same,ALBUMIN,[2],4.47 G/DL
same,ALKALINE PHOSPHATASE,[2],399.33 u/L
same,ASPARTATE AMINOTRANSFERASE,[2],88 u/L
same,BLOOD UREA NITROGEN,[2],16.67 mg/dL
same,CARBON DIOXIDE,[2],26.33 mmol/L
same,CHLORIDE,[2],102 MEQ/L
same,CHOLESTEROL,[2],69.33 mg/dL
same,CREATINE PHOSPHOKINASE,[2],216.67 u/L
same,CREATININE,[2],0.2 mg/dL
same,GLUCOSE,[2],150.33 mg/dL
same,LACTATE DEHYDROGENASE,[2],200.67 u/L
same,LIPASE,[2],9 u/L
same,PHOSPHORUS,[2],14.23 mg/dL
same,POTASSIUM,[2],7.61 MEQ/L
same,SODIUM,[2],147.57 MEQ/L
same,TOTAL BILIRUBIN,[2],0.17 mg/dL
same,TOTAL PROTEIN,[2],6.43 G/DL
same,URIC ACID,[2],2.1 mg/dL
same,ABSOLUTE BASOPHIL,[3],0 CELLS/uL
same,ABSOLUTE EOSINOPHIL,[3],0 CELLS/uL
same,ABSOLUTE LYMPHOCYTE,[3],13408.67 CELLS/uL
same,ABSOLUTE MONOCYTE,[3],33.33 CELLS/uL
same,ABSOLUTE SEGMENTED NEUTROPHIL,[3],1491.33 CELLS/uL
same,BASOPHIL,[3],0%
same,EOSINOPHIL,[3],0%
same,ERYTHROCYTE COUNT,[3],5.4 x10E6/uL
same,HEMATOCRIT,[3],33.33%
same,HEMOGLOBIN,[3],13.33 G/DL
same,LEUKOCYTE COUNT,[3],14.93 x10E3/uL
same,LYMPHOCYTE,[3],90.67%
same,MEAN CORPUSCULAR HEMOGLOBIN,[3],24.7 pg
same,MEAN CORPUSCULAR HEMOGLOBIN CONCENTRATION,[3],40.03 G/DL
same,MEAN CORPUSCULAR VOLUME,[3],61.67 fL
same,MONOCYTE,[3],0.33%
same,NEUTROPHIL,[3],9%
same,NUCLEATED RED BLOOD CELLS,[3],0 /100WBC
same,PLATELET COUNT,[3],1276 x10E3/uL
same,ALANINE AMINOTRANSFERASE,[3],67 u/L
same,ALBUMIN,[3],4.17 G/DL
same,ALKALINE PHOSPHATASE,[3],287.67 u/L
same,ASPARTATE AMINOTRANSFERASE,[3],90.33 u/L
same,BLOOD UREA NITROGEN,[3],14 mg/dL
same,CARBON DIOXIDE,[3],30 mmol/L
same,CHLORIDE,[3],103 MEQ/L
same,CHOLESTEROL,[3],93 mg/dL
same,CREATINE PHOSPHOKINASE,[3],208.33 u/L
same,CREATININE,[3],0.2 mg/dL
same,GLUCOSE,[3],142.33 mg/dL
same,LACTATE DEHYDROGENASE,[3],267.67 u/L
same,LIPASE,[3],10 u/L
same,PHOSPHORUS,[3],13.33 mg/dL
same,POTASSIUM,[3],6.65 MEQ/L
same,SODIUM,[3],147.53 MEQ/L
same,TOTAL BILIRUBIN,[3],0.1 mg/dL
same,TOTAL PROTEIN,[3],5.63 G/DL
same,URIC ACID,[3],1.47 mg/dL
same,ABSOLUTE BASOPHIL,[4],0 CELLS/uL
same,ABSOLUTE EOSINOPHIL,[4],0 CELLS/uL
same,ABSOLUTE LYMPHOCYTE,[4],10152.67 CELLS/uL
same,ABSOLUTE MONOCYTE,[4],25.33 CELLS/uL
same,ABSOLUTE SEGMENTED NEUTROPHIL,[4],755.33 CELLS/uL
same,BASOPHIL,[4],0%
same,EOSINOPHIL,[4],0%
same,ERYTHROCYTE COUNT,[4],5.33 x10E6/uL
same,HEMATOCRIT,[4],34.37%
same,HEMOGLOBIN,[4],13.93 G/DL
same,LEUKOCYTE COUNT,[4],10.93 x10E3/uL
same,LYMPHOCYTE,[4],92.33%
same,MEAN CORPUSCULAR HEMOGLOBIN,[4],26.17 pg
same,MEAN CORPUSCULAR HEMOGLOBIN CONCENTRATION,[4],40.53 G/DL
same,MEAN CORPUSCULAR VOLUME,[4],64.53 fL
same,MONOCYTE,[4],0.33%
same,NEUTROPHIL,[4],7.33%
same,NUCLEATED RED BLOOD CELLS,[4],0.33 /100WBC
same,PLATELET COUNT,[4],1197.33 x10E3/uL
same,ALANINE AMINOTRANSFERASE,[4],58 u/L
same,ALBUMIN,[4],4.37 G/DL
same,ALKALINE PHOSPHATASE,[4],321.33 u/L
same,ASPARTATE AMINOTRANSFERASE,[4],83.33 u/L
same,BLOOD UREA NITROGEN,[4],16 mg/dL
same,CARBON DIOXIDE,[4],26.33 mmol/L
same,CHLORIDE,[4],100.33 MEQ/L
same,CHOLESTEROL,[4],75.67 mg/dL
same,CREATINE PHOSPHOKINASE,[4],222.33 u/L
same,CREATININE,[4],0.32 mg/dL
same,GLUCOSE,[4],138 mg/dL
same,LACTATE DEHYDROGENASE,[4],303 u/L
same,LIPASE,[4],11 u/L
same,PHOSPHORUS,[4],13.23 mg/dL
same,POTASSIUM,[4],6.84 MEQ/L
same,SODIUM,[4],146.1 MEQ/L
same,TOTAL BILIRUBIN,[4],0.1 mg/dL
same,TOTAL PROTEIN,[4],6.3 G/DL
same,URIC ACID,[4],1.47 mg/dL
